Test results reported in US20260272998A1, “CHEMICALLY-MODIFIED MICROORGANISM CONTAINING A SUPEROXIDE DISMUTASE MIMIC INORGANIC COMPLEX AND USE THEREOF FOR TREATING INFLAMMATORY DISEASES” (INSTITUT NATIONAL DE RECHERCHE POUR L'AGRICULTURE, …, priority 2023, published 2026).
Entries after “also recorded” stand apart in the source; their conditions may differ.

Columns and labels:
[1] = test system: Lactobacillus plantarum MD007 strain
Experimental: The Lactobacillus plantarum MD007 strain is grown in MRS containing D-alanine (200 μg/mL) at 37° C.
An overnight culture is used to inoculate fresh medium in order to get an OD600 nm of 0.2, and cells are grown to an OD600 nm of 0.7 and are washed three times D-alanine free MRS medium. The washed bacteria are incubated in medium without D-alanine for 3 h at 37° C. before SOD mimic loading. After alanine starvation, the bacteria are washed three times with Hepes (0.1 M, pH 7.4) to reach a concentration about 10^9 bacteria per 200 μL.
After removal of the culture medium supernatant, bacteria are incubated with Hepes (0.1 M, pH 7.4) only, or with the tested compounds (Mn1 or Mn1C) at the desired concentration in the same buffer for two or twenty-four hours, at 37° C. Mn1C, Mn1 solutions are prepared extemporaneously to prevent degradation and manganese oxidation reactions. After cultures centrifugation and washing with Hepes (0.1 M, pH 7.4), the bacteria are resuspended in Hepes 0.1 M containing 16% glycerol to reach a concentration about 10^9 bacteria per 200 μL. […]
To assess bacteria viability, the overnight culture and the frozen vials are controlled by CFU (colony forming unit) test by diluting the preparation in PBS by serial 1/10 dilution and plating a known volume of the dilutions on the corresponding medium. […] Colonies are then counted by visual observation.

[2] = McCord and Fridovich assay; cited from earlier work
[3] = test system: DBNS-induced colitis murine model; conditions: administered orally in a carbonate buffer; cited from earlier work
[4] = test system: intestinal epithelial cells and macrophages; conditions: cited from earlier work

Cn1ccnc1CNCCN(Cc1ccccc1O)Cc1nccn1C.[Mn+2] [Mn1]
cell viability of loaded bacteria (CFU) [1]: does not affect cell viability
kcat for superoxide dismutation [2]: 7.10^6 M^−1·s^−1
anti-inflammatory activity in DNBS-induced colitis (weight variation, macroscopic scores) [3]: exert an intracellular anti-inflammatory activity in vivo; also recorded: ameliorates DNBS-induced colitis
antioxidant and anti-inflammatory effects on cells [4]: antioxidant and anti-inflammatory effects
